Laboratory results as given in patent US20220409617A1, “Drug Formulations and Methods of Treatment for Metabolic Disorders” (The Regents of the University of California, priority 2019, published 2022).

System: DRP1
Assay: DRP1 recruitment to mitochondria (DRP1/citrate synthase co-localization) and DRP1 western blot
Type: cell-based, mouse
Settings: MEFs
Experimental: Mature adipocytes were serum starved for 16 h then treated with vehicle, ceramide (50 or 100 μM), or sphingolipid-like compound 893 (5 or 10 μM) in serum-free media supplemented with 0.2% fatty-acid free BSA for 3 h after which 100 nM insulin was added for 15 min. To determine total DRP1 protein levels, 100,000 MEFs were seeded into a 6-well plate for 16 h, pre-treated for 3 h with vehicle or sphingolipid-like compound 893 (5 μM) followed by a 3 h incubation in 1% BSA+ethanol or BSA-palmitate (250 μM). Cells were washed once with cold PBS, then lysed in cold RIPA buffer (140 mM NaCl, 10 mM Tris pH 8.0, 1% Triton X-100, 0.1% SDS, 1% sodium deoxycholate) with cOmplete™ protease inhibitor (Cat no. 11697498001, Millipore Sigma, St. Louis, Mo.) and phosSTOP™ phosphatase inhibitor (Cat no. 4906837001, Millipore Sigma). Samples were incubated on ice for 10 min and insoluble material removed by centrifugation (9000×g for 10 min at 4° C.). Protein content was quantified in the supernatant using the Pierce™ BCA Protein Assay Kit (Thermo-Fisher Scientific, Waltham, Mass.). Equal amounts of protein were prepared in NuPAGE® LDS Sample Buffer (NP0007, Invitrogen) containing 50 mM DTT, and heated at 70° C. for 10 min. Proteins were resolved on a NuPAGE® 4-12% Bis-Tris protein gel (NP0336, Invitrogen, Carlsbad, Calif.) and subsequently transferred to a nitrocellulose membrane. Membranes were blocked in 5% BSA in TBST for 1 h, then probed with primary antibodies overnight at 4° C. […] Band intensity was quantified using Image Studio Lite V5.2 software (Li-COR).
MEFs were washed twice with PBS and fixed with 4% paraformaldehyde for 10 min at RT. […] NADH/NADPH autofluorescence was detected with 740 nm excitation and 450±50 nm detectors using a Mai Tai two-photon laser. Fluorescence microscopy was performed on a Zeiss LSM 780 confocal using a 63× oil objective with a […] numerical aperture (NA) or using a Nikon TE2000-S inverted epifluorescence microscope with a 100× oil objective (1.3 NA) and a Photometrics CoolSNAP ES2 monochrome CCD camera. […]

With `CCCCCCCCc1ccc([C@H]2CCN[C@@H]2CO)cc1.Cl` [compound 893] the “DRP1 recruitment to mitochondria in response to palmitate” value (893 5 μM or YM201636 800 nM 3 h, then palmitate 250 μM 3 h) was “prevented the recruitment of the GTPase that mediates fission, DRP1, to mitochondrial membranes” and the “DRP1 protein expression levels” value (893 5 μM, palmitate 250 μM, western blot) was “without affecting DRP1 protein expression levels”.
